Test results reported in patent US12180173B1, “5-((2-isopropyl-5-methylphenoxy)methyl)-3-(naphthalen-1-yl)-1,2,4-oxadiazole as an anti-cancer and antimicrobial compound” (KING FAISAL UNIVERSITY, priority 2023, dated 2024).

What was measured:
Type in all cases: cell-based
Aspergillus flavus = experiment: Agar plate disc-diffusion, inhibition zone
Protocol: (§1) The agar plate disc-diffusion method was applied. […] The discs were then placed onto the surface of agar plates (nutrient agar for bacteria and Sabouraud's dextrose agar for fungi) seeded with the test organism. Each plate contained 15 mL of the agar medium, previously seeded with 0.2 mL of the broth culture of each organism pregrown for 18 hours. The plates were incubated at 37° C. for 48 h, and 72 h for fungi. The inhibition zones were measured in mm. Discs impregnated with DMSO were used as a control, and its inhibition zone was subtracted from the tested compound actual inhibition zone.

Bacillus cereus = experiment: Agar plate disc-diffusion, inhibition zone
Protocol: as §1

[1] = tested on: Chrysosporium keratinophilum; experiment: Agar plate disc-diffusion, inhibition zone
Protocol: as §1

Escherichia coli = experiment: Agar plate disc-diffusion, inhibition zone
Protocol: as §1

Pseudomonas aeruginosa = experiment: Agar plate disc-diffusion, inhibition zone
Protocol: as §1

Staphylococcus aureus = experiment: Agar plate disc-diffusion, inhibition zone
Protocol: as §1

[2] = tested on: human osteosarcoma cells (MG-63); experiment: Cytotoxicity by SRB assay; settings: MG-63 cells, 0.01 μM to 100 μM for 72 h
Text: (§2) The anticancer activity of the described synthesized compounds against highly aggressive androgen-independent metastatic human prostate cancer cells (PC3) and osteosarcoma (MG-63) cells. The human prostate cancer cells (PC3) and human osteosarcoma cells (MG-63) were obtained from Nawah Scientific Inc. (Mokatam, Cairo, Egypt) and cultured in DMEM (Dulbecco's modified eagle's medium), Gibco, USA, supplemented with fetal bovine serum (FBS) at a concentration of 10% and 100 U/mL of penicillin and streptomycin (PS). The Cells were incubated at 37° C. in a humidified environment that contained 5% CO2.
(§3) Cells were seeded in 96-well plates as aliquots of 100 μL cell suspension and incubated in a complete media for 24 h. afterward, cells were treated with 5-((2-isopropyl-5-methylphenoxy)methyl)-3-(naphthalen-1-yl)-1,2,4-oxadiazole at diverse concentrations ranging from 0.01 μM to 100 μM for 72 h. Then, cells were fixed at 4° C. for one hour with 150 μL of 10% trichloroacetic acid (TCA). […] Then, 150 μL of Tris pH 10.5 (10 mM) was added, and the absorbance was measured at 540 nm using a BMG LABTECH®-FLUOstar Omega microplate reader (Ortenberg, Germany). Half maximal inhibitory concentrations (IC50) values were calculated for each experiment using GraphPad Prism 6 software. […]
(§4) The inhibition was calculated using the following equation: Inhibition %=100−Average Viability

[3] = tested on: human prostate cancer cells (PC3); experiment: Cytotoxicity by SRB assay; settings: 0.01 μM to 100 μM for 72 h
Text: as §2, §3, §4

different microbes = experiment: Antimicrobial activity, agar plate disc-diffusion (overall statement); settings: against different microbes (bacteria and fungi)
Protocol: The agar plate disc-diffusion method was applied. Sterilized filter papers (6 mm in diameter) were wetted with 10 μL of a solution of 5-((2-isopropyl-5-methylphenoxy)methyl)-3-(naphthalen-1-yl)-1,2,4-oxadiazole (3) to be tested, containing 10 mg/mL in DMSO, and the discs were allowed to air dry. The discs were then placed onto the surface of agar plates (nutrient agar for bacteria and Sabouraud's dextrose agar for fungi) seeded with the test organism. Each plate contained 15 mL of the agar medium, previously seeded with 0.2 mL of the broth culture of each organism pregrown for 18 hours. The plates were incubated at 37° C. for 48 h, and 72 h for fungi. The inhibition zones were measured in mm. Discs impregnated with DMSO were used as a control, and its inhibition zone was subtracted from the tested compound actual inhibition zone.

[4] = A = concentration of comp. = 10,000 μL
[5] = B = concentration of comp. = 30,000 μL
[6] = C = concentration of comp. = 50,000 μL

SMILES: Cc1ccc(C(C)C)c(OCc2nc(-c3cccc4ccccc34)no2)c1 [Compound 3, 5-((2-isopropyl-5-methylphenoxy)methyl)-3-(naphthalen-1-yl)-1,2,4-oxadiazole]
- inhibition zone (Aspergillus flavus; [4]): 18 mm
- inhibition zone (Aspergillus flavus; [5]): 22 mm
- inhibition zone (Aspergillus flavus; [6]): 30 mm
- inhibition zone (Bacillus cereus; [4]): 28 mm
- inhibition zone (Bacillus cereus; [5]): 30 mm
- inhibition zone (Bacillus cereus; [6]): 39 mm
- inhibition zone [1, 4]: 27 mm
- inhibition zone [1, 5]: 29 mm
- inhibition zone [1, 6]: 46 mm
- inhibition zone (Escherichia coli; [4]): 29 mm
- inhibition zone (Escherichia coli; [5]): 32 mm
- inhibition zone (Escherichia coli; [6]): 51 mm
- inhibition zone (Pseudomonas aeruginosa; [4]): 24 mm
- inhibition zone (Pseudomonas aeruginosa; [5]): 28 mm
- inhibition zone (Pseudomonas aeruginosa; [6]): 37 mm
- inhibition zone (Staphylococcus aureus; [4]): 14 mm
- inhibition zone (Staphylococcus aureus; [5]): 21 mm
- inhibition zone (Staphylococcus aureus; [6]): 24 mm
- antiproliferative activity [2]: excellent antiproliferative activities
- antiproliferative activity [3]: excellent antiproliferative activities
- antimicrobial activity (different microbes): excellent antimicrobial activities

SMILES: O=C(O)c1cn(C2CC2)c2cc(N3CCNCC3)c(F)cc2c1=O [Cip., ciprofloxacin, reference compound]
- inhibition zone (Aspergillus flavus; [4]): 29 mm
- inhibition zone (Aspergillus flavus; [5]): 30 mm
- inhibition zone (Aspergillus flavus; [6]): 42 mm
- inhibition zone (Bacillus cereus; [4]): 29 mm
- inhibition zone (Bacillus cereus; [5]): 30 mm
- inhibition zone (Bacillus cereus; [6]): 42 mm
- inhibition zone [1, 4]: 29 mm
- inhibition zone [1, 5]: 30 mm
- inhibition zone [1, 6]: 53 mm
- inhibition zone (Escherichia coli; [4]): 30 mm
- inhibition zone (Escherichia coli; [5]): 39 mm
- inhibition zone (Escherichia coli; [6]): 60 mm
- inhibition zone (Pseudomonas aeruginosa; [4]): 29 mm
- inhibition zone (Pseudomonas aeruginosa; [5]): 30 mm
- inhibition zone (Pseudomonas aeruginosa; [6]): 53 mm
- inhibition zone (Staphylococcus aureus; [4]): 43 mm
- inhibition zone (Staphylococcus aureus; [5]): 44 mm
- inhibition zone (Staphylococcus aureus; [6]): 53 mm
